# Experimental data published in US11660345B2, “Method and composition for enhancing the delivery of anti-platelet drugs for the treatment of acute stroke” (Realinn Life Science Limited, priority 2013, dated 2023).
# How the values were obtained:
# mouse stroke model = details: intravenous injection of 100 mg/kg; cited from earlier work
# [1] = test system: middle cerebral artery occlusion (MCAO) model in mice; assay: Brain infarct volume, atrophy and edema by Nissl staining in mice of the middle cerebral artery occlusion model; format: in vivo; details: 10 mg/kg (2 mg/mL)
# Protocol: (§1) In order to simulate human brain stroke, an intravascular suture-occluded method was employed to establish a middle cerebral artery occlusion (MCAO) model in mice. Prior to experimentation, the body weights of the mice were measured and rectum temperatures were recorded. The mice were anesthetized with 4% halothane in 100% O2 followed by 0.5-1% halothane in 70% N2O and 30% O2 to maintain the anesthetized status. The mouse cerebral artery occlusion model is established according to the Tamura method (Focal cerebral ischemia in the rat: 1. Description of technique and early neuropathological consequences following middle cerebral artery occlusion. J Cereb Blood Flow Metab. 1981; 1(1):53-60. Tamura A, Graham D I, McCulloch J, Teasdale G M). The mouse was secured in prone position and an incision was introduced to the lateral of the head and neck portion by a scalpel to expose the right common carotid artery. The middle cerebral artery (MCA) was cauterized to simulate ischemia. […]
# The mice of the middle cerebral artery occlusion model were sacrificed 15 days after the treatment with the three groups of drugs. Brain samples of the mice were collected and local ischemic injuries on the neuron gray matter of the mice brains were evaluated with Nissl staining using cresyl violet. […]
# [2] = test system: middle cerebral artery occlusion (MCAO) model in mice; assay: Neurobehavioral test (motor neurobehavior evaluation score 0-4) in mice of the middle cerebral artery occlusion model; format: in vivo; details: 10 mg/kg (2 mg/mL) tail vein injection 5 hours after stroke, higher score = higher motor dysfunction (vehicle control 3)
# Protocol: as §1, with “M).” for “M). The mouse was secured in prone position and an incision was introduced to the lateral of the head and neck portion by a scalpel to expose the right common carotid artery. The middle cerebral artery (MCA) was cauterized to simulate ischemia.”
# The body weights of the mice in the three test groups in Example 4 were measured and neurological examination was conducted concurrently. […] Since 15 days after stroke is no longer the acute stroke phase, the invention evaluated the status of the motor system of mice treated within the acute stroke phase and those treated after the acute stroke phase. The motor responses to be assessed are listed in Table 1 (Middle cerebral artery occlusion in the rat by intraluminal suture. Neurological and pathological evaluation of an improved model. Belayev L, Alonso O F, Busto R, Zhao W, Ginsberg M D. Stroke. 1996 September; 27(9):1616-22; discussion 1623). […]
Compound,hypotension / mortality (in words) (mouse stroke model),infarct volume (in words) (mouse stroke model),"brain infarct volume ([1]; 5 hours after stroke, 15 days after treatment (vehicle control about 14%))",brain atrophy (Nissl staining / infarct volume calculation) ([1]; 15 days after treatment),score of the motor neurobehavior evaluation ([2]; after 7 days of treatment),score of the motor neurobehavior evaluation ([2]; after 15 days of treatment)
OCCN(CCO)c1nc(N2CCCCC2)c2nc(N(CCO)CCO)nc(N3CCCCC3)c2n1 [Dipyridamole],causes hypotension and increases the mortality rate,can efficiently reduce the infarct volume,–,–,–,–
"recombinant-type plasminogen activator: recombinant-type plasminogen activator (rt-PA), thrombolytic agent",–,–,about 18%,atrophied after 15 days,2.3,2.6
